The structures appear in SMILES notation.

The test system of the first data set is Phytophthora infestans lycopersici.
Test: not given
It counts as in vivo. Particulars: METHOD 2 (unbanded).
Regarding `Cc1nc2ccc(CC(=O)Nc3snc(C)c3Cl)cc2o1` [2(A23)], the “PHYTIN 1 d Prot/Foir PRCO” value came out at 100.

In the case of `Cc1nc2cc(CC(=O)N(C)c3snc(C)c3Cl)ccc2o1` [2(B3)], the “PHYTIN 1 d Prot/Foir PRCO” value is given as 100.

Regarding `CCN(C(=O)Cc1ccc2oc(C)nc2c1)c1snc(C)c1Cl` [2(C3)], the “PHYTIN 1 d Prot/Foir PRCO” value came to 150.

With `CCCN(C(=O)Cc1ccc2oc(C)nc2c1)c1snc(C)c1Cl` [2(D3)], the “PHYTIN 1 d Prot/Foir PRCO” value is 59.

For the molecule `C=CCN(C(=O)Cc1ccc2oc(C)nc2c1)c1snc(C)c1Cl` [2(E3)], the “PHYTIN 1 d Prot/Foir PRCO” value is given as 98.

Turning to `C#CCN(C(=O)Cc1ccc2oc(C)nc2c1)c1snc(C)c1Cl` [2(F3)], the “PHYTIN 1 d Prot/Foir PRCO” value came out at 100.

For the molecule `COCN(C(=O)Cc1ccc2oc(C)nc2c1)c1snc(C)c1Cl` [2(K3)], the “PHYTIN 1 d Prot/Foir PRCO” value is on record as 98.

Regarding `CCOCN(C(=O)Cc1ccc2oc(C)nc2c1)c1snc(C)c1Cl` [2(L3)], the “PHYTIN 1 d Prot/Foir PRCO” value was 82.

Turning to `COCCOCN(C(=O)Cc1ccc2oc(C)nc2c1)c1snc(C)c1Cl` [2(M3)], the “PHYTIN 1 d Prot/Foir PRCO” value is 83.

For `CCCc1nc2cc(CC(=O)N(C)c3snc(C)c3Cl)ccc2o1` [4(B3)], the “PHYTIN 1 d Prot/Foir PRCO” value came out at 100.

`CCCc1nc2cc(CC(=O)N(CC)c3snc(C)c3Cl)ccc2o1` [4(C3)]: the “PHYTIN 1 d Prot/Foir PRCO” value is 79.

`CCCc1nc2cc(CC(=O)N(CCC)c3snc(C)c3Cl)ccc2o1` [4(D3)]: the “PHYTIN 1 d Prot/Foir PRCO” value is on record as 96.

`C=CCN(C(=O)Cc1ccc2oc(CCC)nc2c1)c1snc(C)c1Cl` [4(E3)]: the “PHYTIN 1 d Prot/Foir PRCO” value was determined as 95.

For the molecule `C#CCN(C(=O)Cc1ccc2oc(CCC)nc2c1)c1snc(C)c1Cl` [4(F3)], the “PHYTIN 1 d Prot/Foir PRCO” value worked out at 99.

With `CCCc1nc2cc(CC(=O)N(COC)c3snc(C)c3Cl)ccc2o1` [4(K3)], the “PHYTIN 1 d Prot/Foir PRCO” value came out at 98.

In another data set the test system is Erysiphe graminis f.sp. tritici. The experiment in a line: Fungicidal test, Erysiphe graminis f.sp. tritici (ERYSGT) on wheat, PRCO. Particulars: 1 d Prot/Foir; METHOD 2 (unbanded). It counts as in vivo.
`Cc1nc2ccc(CC(=O)Nc3snc(C)c3Cl)cc2o1` [2(A23)]: the “ERYSGT 1 d Prot/Foir PRCO” value is listed as −3.

A further data set deals with Septoria nodorum. Nature of the data set: Fungicidal test, Septoria nodorum (LEPTNO) on wheat, PRCO. It is filed as in vivo. Particulars: METHOD 2 (unbanded).
With `Cc1nc2ccc(CC(=O)Nc3snc(C)c3Cl)cc2o1` [2(A23)], the “LEPTNO 1 d Prot/Foir PRCO” value was 53.

The next data set has as its system Puccinia recondita. Nature of the data set: Fungicidal test, Puccinia recondita (PUCCRT) on wheat, PRCO. It counts as in vivo. To be noted: METHOD 2 (unbanded).
For the molecule `Cc1nc2ccc(CC(=O)Nc3snc(C)c3Cl)cc2o1` [2(A23)], the “PUCCRT 1 d Prot/Foir PRCO” value was 77.

`Cc1nc2cc(CC(=O)N(C)c3snc(C)c3Cl)ccc2o1` [2(B3)]: the “PUCCRT 1 d Prot/Foir PRCO” value came out at 96.

For `CCN(C(=O)Cc1ccc2oc(C)nc2c1)c1snc(C)c1Cl` [2(C3)], the “PUCCRT 1 d Prot/Foir PRCO” value is on record as 74.

Regarding `CCCN(C(=O)Cc1ccc2oc(C)nc2c1)c1snc(C)c1Cl` [2(D3)], the “PUCCRT 1 d Prot/Foir PRCO” value turned out to be 96.

Take `C=CCN(C(=O)Cc1ccc2oc(C)nc2c1)c1snc(C)c1Cl` [2(E3)]: the “PUCCRT 1 d Prot/Foir PRCO” value came to 99.

With `C#CCN(C(=O)Cc1ccc2oc(C)nc2c1)c1snc(C)c1Cl` [2(F3)], the “PUCCRT 1 d Prot/Foir PRCO” value is listed as 90.

Take `COCN(C(=O)Cc1ccc2oc(C)nc2c1)c1snc(C)c1Cl` [2(K3)]: the “PUCCRT 1 d Prot/Foir PRCO” value was found to be 97.

Turning to `CCOCN(C(=O)Cc1ccc2oc(C)nc2c1)c1snc(C)c1Cl` [2(L3)], the “PUCCRT 1 d Prot/Foir PRCO” value was determined as 93.

As for `COCCOCN(C(=O)Cc1ccc2oc(C)nc2c1)c1snc(C)c1Cl` [2(M3)], the “PUCCRT 1 d Prot/Foir PRCO” value was 68.

Regarding `CCCc1nc2cc(CC(=O)N(C)c3snc(C)c3Cl)ccc2o1` [4(B3)], the “PUCCRT 1 d Prot/Foir PRCO” value was 48.

For the molecule `CCCc1nc2cc(CC(=O)N(CC)c3snc(C)c3Cl)ccc2o1` [4(C3)], the “PUCCRT 1 d Prot/Foir PRCO” value came to 96.

As for `CCCc1nc2cc(CC(=O)N(CCC)c3snc(C)c3Cl)ccc2o1` [4(D3)], the “PUCCRT 1 d Prot/Foir PRCO” value turned out to be 90.

For the molecule `C=CCN(C(=O)Cc1ccc2oc(CCC)nc2c1)c1snc(C)c1Cl` [4(E3)], the “PUCCRT 1 d Prot/Foir PRCO” value is reported as 97.

Consider `C#CCN(C(=O)Cc1ccc2oc(CCC)nc2c1)c1snc(C)c1Cl` [4(F3)], for which the “PUCCRT 1 d Prot/Foir PRCO” value is reported as 100.

For the molecule `CCCc1nc2cc(CC(=O)N(COC)c3snc(C)c3Cl)ccc2o1` [4(K3)], the “PUCCRT 1 d Prot/Foir PRCO” value came to 100.

For another data set, the system named is Musca domestica.
Test: not given
Particulars: 500 ppm by weight; knockdown assessed 15 minutes after treatment.
Regarding `Cc1nc2ccc(CC(=O)Nc3snc(C)c3Cl)cc2o1` [2(A23)], the “MUSCDO AC = Musca domestica (knockdown), score” value (“MUSCDO AC = Musca domestica” for short) is recorded as 0 (0 indicates less than 40% mortality).

On to `Cc1nc2cc(CC(=O)N(C)c3snc(C)c3Cl)ccc2o1` [2(B3)], for which the “MUSCDO AC = Musca domestica” value is 9 (9 indicates 80-100% mortality).

For the molecule `CCN(C(=O)Cc1ccc2oc(C)nc2c1)c1snc(C)c1Cl` [2(C3)], the “MUSCDO AC = Musca domestica” value is 9 (9 indicates 80-100% mortality).

For the molecule `CCCN(C(=O)Cc1ccc2oc(C)nc2c1)c1snc(C)c1Cl` [2(D3)], the “MUSCDO AC = Musca domestica” value is on record as 0 (0 indicates less than 40% mortality).

As for `C=CCN(C(=O)Cc1ccc2oc(C)nc2c1)c1snc(C)c1Cl` [2(E3)], the “MUSCDO AC = Musca domestica” value is on record as 0 (0 indicates less than 40% mortality).

For `C#CCN(C(=O)Cc1ccc2oc(C)nc2c1)c1snc(C)c1Cl` [2(F3)], the “MUSCDO AC = Musca domestica” value is recorded as 0 (0 indicates less than 40% mortality).

On to `COCN(C(=O)Cc1ccc2oc(C)nc2c1)c1snc(C)c1Cl` [2(K3)], for which the “MUSCDO AC = Musca domestica” value is 9 (9 indicates 80-100% mortality).

`CCOCN(C(=O)Cc1ccc2oc(C)nc2c1)c1snc(C)c1Cl` [2(L3)]: the “MUSCDO AC = Musca domestica” value was 9 (9 indicates 80-100% mortality).

Take `COCCOCN(C(=O)Cc1ccc2oc(C)nc2c1)c1snc(C)c1Cl` [2(M3)]: the “MUSCDO AC = Musca domestica” value is on record as 0 (0 indicates less than 40% mortality).

Take `CCCc1nc2cc(CC(=O)N(C)c3snc(C)c3Cl)ccc2o1` [4(B3)]: the “MUSCDO AC = Musca domestica” value was 0 (0 indicates less than 40% mortality).

On to `CCCc1nc2cc(CC(=O)N(CC)c3snc(C)c3Cl)ccc2o1` [4(C3)], for which the “MUSCDO AC = Musca domestica” value is recorded as 0 (0 indicates less than 40% mortality).

Consider `CCCc1nc2cc(CC(=O)N(CCC)c3snc(C)c3Cl)ccc2o1` [4(D3)], for which the “MUSCDO AC = Musca domestica” value is listed as 0 (0 indicates less than 40% mortality).

Regarding `C=CCN(C(=O)Cc1ccc2oc(CCC)nc2c1)c1snc(C)c1Cl` [4(E3)], the “MUSCDO AC = Musca domestica” value was 0 (0 indicates less than 40% mortality).

`C#CCN(C(=O)Cc1ccc2oc(CCC)nc2c1)c1snc(C)c1Cl` [4(F3)]: the “MUSCDO AC = Musca domestica” value was 0 (0 indicates less than 40% mortality).

On to `CCCc1nc2cc(CC(=O)N(COC)c3snc(C)c3Cl)ccc2o1` [4(K3)], for which the “MUSCDO AC = Musca domestica” value is recorded as 0 (0 indicates less than 40% mortality).

For a further data set, the system named is Meloidogyne incognita. The experiment in a line: Nematode test, J2 infective juveniles of Meloidogyne incognita, mortality. Particulars: 12.5 ppm; J2 infective juveniles suspended in solution; mortality after three days.
As to `Cc1nc2ccc(CC(=O)Nc3snc(C)c3Cl)cc2o1` [2(A23)], the “MELGIN = Meloidogyne incognita, grading of mortality (score)” value (from here on “MELGIN = Meloidogyne incognita, grading”) is listed as 0 (0 indicates less than 40% mortality).

Regarding `Cc1nc2cc(CC(=O)N(C)c3snc(C)c3Cl)ccc2o1` [2(B3)], the “MELGIN = Meloidogyne incognita, grading” value is 0 (0 indicates less than 40% mortality).

Consider `CCN(C(=O)Cc1ccc2oc(C)nc2c1)c1snc(C)c1Cl` [2(C3)], for which the “MELGIN = Meloidogyne incognita, grading” value is 0 (0 indicates less than 40% mortality).

Take `CCCN(C(=O)Cc1ccc2oc(C)nc2c1)c1snc(C)c1Cl` [2(D3)]: the “MELGIN = Meloidogyne incognita, grading” value was 0 (0 indicates less than 40% mortality).

Turning to `C=CCN(C(=O)Cc1ccc2oc(C)nc2c1)c1snc(C)c1Cl` [2(E3)], the “MELGIN = Meloidogyne incognita, grading” value is given as 0 (0 indicates less than 40% mortality).

`C#CCN(C(=O)Cc1ccc2oc(C)nc2c1)c1snc(C)c1Cl` [2(F3)]: the “MELGIN = Meloidogyne incognita, grading” value was 0 (0 indicates less than 40% mortality).

Turning to `COCN(C(=O)Cc1ccc2oc(C)nc2c1)c1snc(C)c1Cl` [2(K3)], the “MELGIN = Meloidogyne incognita, grading” value was 0 (0 indicates less than 40% mortality).

As for `CCOCN(C(=O)Cc1ccc2oc(C)nc2c1)c1snc(C)c1Cl` [2(L3)], the “MELGIN = Meloidogyne incognita, grading” value is on record as 0 (0 indicates less than 40% mortality).

Consider `COCCOCN(C(=O)Cc1ccc2oc(C)nc2c1)c1snc(C)c1Cl` [2(M3)], for which the “MELGIN = Meloidogyne incognita, grading” value is 0 (0 indicates less than 40% mortality).

`CCCc1nc2cc(CC(=O)N(C)c3snc(C)c3Cl)ccc2o1` [4(B3)]: the “MELGIN = Meloidogyne incognita, grading” value is reported as 0 (0 indicates less than 40% mortality).

Take `CCCc1nc2cc(CC(=O)N(CC)c3snc(C)c3Cl)ccc2o1` [4(C3)]: the “MELGIN = Meloidogyne incognita, grading” value is listed as 0 (0 indicates less than 40% mortality).

In the case of `CCCc1nc2cc(CC(=O)N(CCC)c3snc(C)c3Cl)ccc2o1` [4(D3)], the “MELGIN = Meloidogyne incognita, grading” value was 0 (0 indicates less than 40% mortality).

For the molecule `C=CCN(C(=O)Cc1ccc2oc(CCC)nc2c1)c1snc(C)c1Cl` [4(E3)], the “MELGIN = Meloidogyne incognita, grading” value is on record as 0 (0 indicates less than 40% mortality).

With `C#CCN(C(=O)Cc1ccc2oc(CCC)nc2c1)c1snc(C)c1Cl` [4(F3)], the “MELGIN = Meloidogyne incognita, grading” value is on record as 0 (0 indicates less than 40% mortality).

For `CCCc1nc2cc(CC(=O)N(COC)c3snc(C)c3Cl)ccc2o1` [4(K3)], the “MELGIN = Meloidogyne incognita, grading” value is reported as 0 (0 indicates less than 40% mortality).

Source of the values: US6544989B2, “Benzazoles: benzoxazole, benzthiazole and benzimidazole derivatives” (Syngenta Limited, priority 1998, dated 2003).
